# Results reported in patent US8236510B2, “Protein showing enhanced expression in cancer cells” (Agensys, Inc., priority 1999, dated 2012).
# Where two headings read alike, the source gives them in different places.
# Assays:
# [1] = tested on: cAMP accumulation in PC3-101P3A11 cells; test: cAMP accumulation in PC3 and PC3-101P3A11 cells (enzyme immunoassay); assay type: cell-based, human
# Method: Olfactory receptors are known to regulate biological responses by activating adenylate cyclase. In order to confirm that 101P3A11 functions as a GPCR and mediates the activation of adenylate cyclase, cAMP accumulation in PC3 and PC3-101P3A11 cells were compared (FIG. 32). Control PC3 and PC3-101P3A11 cells were grown in a low concentration of fetal bovine serum (FBS) for 14 hrs in the presence or absence of pertussis toxin (PTX). The cells were stimulated with 0.1% or 10% FBS, washed in PBS and lysed using a lysis buffer provided by Amersham Pharmacia. Intracellular concentration of cAMP was measured using a commercially available enzyme immunoassay (EIA) according to the manufacturer's recommendations (Amersham Pharmacia). Each assay was performed in duplicate. Calculations of cAMP concentrations were based on OD450 of the standard curve. Expression of 101P3A11 induced a four-fold increase in cAMP accumulation in the absence of stimulation. Treatment with 10% FBS further enhanced cAMP accumulation in PC3-101P3A11 cells to nearly seven-fold over control PC3-neo cells. 101P3A11 mediated cAMP accumulation was inhibited by PTX.
# In order to confirm that anti-101P3A11 pAb has a detectable effect on cAMP accumulation, PC3 and PC3-101P3A11 cells were grown in 0.1% FBS and treated with anti-101P3A11 pAb. Cells were analyzed for cAMP content as described in FIG. 32. […]
# 3T3-101P3A11 tumors = test: Subcutaneous growth of 3T3-101P3A11 tumors in SCID mice; assay type: in vivo
# Method: (2) Regulated expression under control of an inducible vector system, such as ecdysone, tet, etc., can be used provided such promoters are compatible with the host cell systems. […] FIG. 21 compares subcutaneous growth of control 3T3-neo and 3T3-101P3A11 cells. One million cells stably expressing neo or 101P3A11 were injected subcutaneously in SCID mice along with matrigel. Tumor volume was evaluated by caliper measurements. […] Additionally, SCID mice were implanted with the same 3T3-101P3A11 cells orthotopically in the prostate to determine if 101P3A11 has an effect on local growth in the prostate or on the ability of the cells to metastasize, specifically to lungs or lymph nodes. […] In an analogous manner, cells can be implanted orthotopically in the bladder, colon or kidney. (Saffran, D., et al., PNAS 10:1073-1078; Fu, X., et al., Int. J. Cancer, 1991, 49: p. 938-939; Chang, S., et al., Anticancer Res., 1997, 17: p. 3239-3242; Peralta, E. A., et al., J. Urol., 1999, 162: p. 1806-1811). The tumor enhancing effect of 101P3A11 was also observed when 101P3A11 is expressed in prostate cancer cells such as PC3 and introduced into the prostate of SCID mice (Figure M11). A 2.5 fold increase in tumor weight is observed in tumors expressing 101P3A11 relative to control cells.
# Furthermore, these assays is useful to confirm the anti-101P3A11 inhibitory effects of candidate therapeutic compositions, such as for example, 101P3A11 antibodies or intrabodies, and 101P3A11 antisense molecules or ribozymes, or 101P3A11 directed small molecules. In FIG. 22, we depict the effect of a small molecule, pertussis toxin (PTX) on tumor formation by 3T3-101P3A11 cells. In this experiment, SCID mice were injected with 3T3-101P3A11 alone or in conjunction with PTX. Each mouse was given 5 doses of PTX at 3-4 days interval. Tumor volume was evaluated by caliper measurements. […] Similarly, treatment with the G-protein inhibitor suramin inhibits the growth of 3T3-101P3A11 tumors (Figure M13).
substance,measurement,setting,value
pertussis toxin [PTX],inhibition of 101P3A11 mediated cAMP accumulation,[1],partially inhibited
same,inhibition of 101P3A11 mediated cAMP accumulation,[1]; listed as pertussis toxin,inhibited
same,inhibition of tumor growth,"3T3-101P3A11 tumors; 5 doses at 3-4 days interval, tumor volume by caliper",inhibits tumor growth in a dose dependent manner
same,inhibition of tumor growth,"3T3-101P3A11 tumors; 5 doses at 3-4 days interval, tumor volume by caliper, listed as Pertussis toxin",inhibit
same,inhibition of tumor growth,"3T3-101P3A11 tumors; 5 time per week, after 25 days",70%
